Results on two compounds are retold here after patent US12643867B2, “Compositions and uses thereof” (University of Virginia Patent Foundation, priority 2017, dated 2026).

Each structure is given as a SMILES string.

Common to all, as to assay type: cell-based
Series [1] has as its system recombinant DGK isoforms (total of 10). The experiment in a line: JWB003 labeling in live cells (in situ). The following applies: live HEK293T cells. The method, then:
(§1) • 1. HEK293T cells were harvested in cold PBS. • a. Cells were transferred to Eppendorf tube. • 2. Cells were lysed via tip sonicator. • 3. Cells were fractionated into membrane and soluble fraction. • a. 100,000×G for 45 minutes at 4 degree. • b. Supernatant was separated from cell pellet. • 4. Dilute proteomes to 1 mg/mL in PBS and aliquot appropriate reaction volume (49 μL for probe only; 48 μL for competition+probe) • 5. Cells were treated with 50× inhibitor. • a. Incubated for 1Hr at 37 degree. • 6. Cells were treated with 50× Probe (JWB003). • a. Incubated for 1Hr at 37 degree. • 7. Add 6 μL of master mix to each alkyne probe-labeled sample. • a. 1 μL of 1.25 mM Rh-N3 • b. 1 μL of fresh 50 mM TCEP • c. 3 μL of 1.7 mM TBTA stock • d. 1 μL of 50 mM CuSO4 • 8. Vortex samples. • 9. Incubate at room temperature for 1 hr • 10. Quench with 17 μL of 4×SDS-PAGE loading buffer+βME and vortex tubes. • 11. Analyze 30 μL samples by SDS-PAGE immediately. [B] Labeling HEK293T Cells to Determine Target Proteins of JWB003 in Live Cells (In Situ) • 1. Complete media was removed from HEK293T cells and replaced with serum free media containing JWB003 at the appropriate final concentration • a. Cells were placed in incubator for appropriate time at 37 degree 5% CO2 • 2. Cells were washed • a. 2× warm PBS • b. 2× cold PBS • c. Harvest cells in cold PBS • 3. Cells were transferred to Eppendorf tube • 4. […]

The next series addresses T1, recombinant hDGKa (Homo sapiens, UniProt P23743).
T1 construct: expressed in transfected cells; host or cells: HEK293T
The experiment in a line: JWB003 labeling in live cells (in situ). As to conditions: 25 μM; transfected HEK293T cells. The method, then:
as §1

A further series addresses T2, human PKCa (hPKCa) (Homo sapiens, UniProt P17252).
T2 construct: expressed in transfected cells; host or cells: HEK293T
The experiment in a line: JWB003 labeling of C1 domain protein kinases. The following applies: transfected HEK293T cells. The method, then:
as §1

For series [2], the system named is Bone Marrow Derived Macrophages (BMDMs), noncancerous primary cells. The experiment in a line: WST-1 Cell Proliferation Assay. The following applies: ritanserin highest concentration tested 50 μM; staurosporine 1 μM.
For another series, the system named is H82 cells. The experiment in a line: WST-1 Cell Proliferation Assay. The following applies: ritanserin, ketanserin 5-50 μM; staurosporine 1 μM. The method, then: (§2) WST-1 Cell Proliferation Assays. Tumor cells were plated in transparent tissue-culture treated 96-well plates at a density of 100,000 cells/mL (A549, H1650) or 200,000 cells/mL (H82) in a volume of 100 μL per well. Cells were treated with dimethyl sulfoxide (DMSO) vehicle or inhibitors dissolved in DMSO at the indicated concentrations (final DMSO concentration of 0.5%). Cells were allowed to grow for indicated times at 37° C. under 5% CO2. Afterwards, equal parts of WST-1 developer reagent and electron mediator solution were mixed and 10 μL of the resulting solution (‘WST-1 reagent’) were added to each well. Plates were shaken in an orbital shaker for 60 s and then returned to the incubator for two hrs. Plates were again shaken followed measurement of absorbance at 450 nm. Data were normalized to DMSO-treated wells and significance values determined with one-way ANOVA.

For another series, the system named is A549 cells. The experiment in a line: WST-1 Cell Proliferation Assay. The following applies: ritanserin, ketanserin 5-50 μM; staurosporine 1 μM. The method, then:
as §2

The next series has as its system H1650 cells. The experiment in a line: WST-1 Cell Proliferation Assay. The following applies: ritanserin, ketanserin 5-50 μM; staurosporine 1 μM. The method, then:
as §2

T1 sequence (P23743 whole entry): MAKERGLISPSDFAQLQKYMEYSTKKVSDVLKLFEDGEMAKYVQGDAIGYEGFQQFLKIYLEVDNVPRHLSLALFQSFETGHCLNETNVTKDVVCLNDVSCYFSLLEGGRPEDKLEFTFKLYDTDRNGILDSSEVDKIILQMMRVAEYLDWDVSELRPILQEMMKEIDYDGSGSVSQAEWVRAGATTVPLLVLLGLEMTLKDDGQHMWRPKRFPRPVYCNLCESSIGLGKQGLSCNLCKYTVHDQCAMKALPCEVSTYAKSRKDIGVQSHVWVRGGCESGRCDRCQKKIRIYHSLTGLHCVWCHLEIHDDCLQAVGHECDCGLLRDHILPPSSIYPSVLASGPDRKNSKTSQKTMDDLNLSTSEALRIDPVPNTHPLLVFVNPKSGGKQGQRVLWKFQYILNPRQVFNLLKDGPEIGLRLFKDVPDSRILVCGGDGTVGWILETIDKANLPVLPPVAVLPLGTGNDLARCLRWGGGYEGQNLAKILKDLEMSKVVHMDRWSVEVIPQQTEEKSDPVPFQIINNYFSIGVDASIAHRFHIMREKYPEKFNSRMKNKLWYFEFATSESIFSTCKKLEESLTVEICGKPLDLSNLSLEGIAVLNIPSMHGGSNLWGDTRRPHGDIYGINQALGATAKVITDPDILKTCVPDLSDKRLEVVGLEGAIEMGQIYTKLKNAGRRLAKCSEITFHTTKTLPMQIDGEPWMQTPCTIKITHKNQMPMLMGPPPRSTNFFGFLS

`C#CCCC(=O)NCCN1CCN(C/C=C/C(=O)N2CCC(=C(c3ccc(F)cc3)c3ccc(F)cc3)CC2)CC1` [JWB003]: the “labeling of recombinant DGK isoforms” value in series [1] is reported as “effective labeling of all ten proteins in live cells”. The “time at which probe labeling of hDGKa saturates” value at recombinant hDGKa was determined as 60 min. Further, the “labeling of hPKCa” value at human PKCa (hPKCa) was “labeling of hPKCa in the membrane but not soluble fraction”.

Turning to `CN[C@@H]1C[C@H]2O[C@@](C)([C@@H]1OC)n1c3ccccc3c3c4c(c5c6ccccc6n2c5c31)C(=O)NC4` [Staurosporine], in series [2], the “cell killing of noncancerous primary cells (WST-1), words” value is on record as “general cytotoxicity across all cells tested”. Further, the “cell viability (WST-1), words” value in the series on H82 cells, in the series on A549 cells and with H1650 cells was “general cytotoxicity across all cells tested” in each case.
